The subject of the test is red blood cells. As to the kind of experiment: Incorporation of the ceramide conjugate into red blood cell membranes, fluorescence scored after labelling with Avidin Alexa Fluor 488. The test is classed as cell-based.

Protocol: A 50 μL volume of packed red blood cells was re-suspended in an equal volume of a dispersion in phosphate buffered saline (PBS) (pH 7.2) of the ceramide conjugate (X). The re-suspended cells were incubated at 37° C. for two hours and then washed once with PBS. The modified cells were diluted with PBS to provide a suspension at a concentration equivalent to 5% of the packed cell volume. A 30 μL volume of the diluted suspension was then mixed with an equal volume of a 0.1 mg/mL solution of Avidin Alexa Flour™ 488 in PBS. The mixture was incubated at room temperature for 30 minutes before washing and re-suspending the modified cells in PBS. The fluorescence of cells in a 5 μL volume was observed using a microscope (Olympus BX51) at 400 x magnification.
The modified cells prepared using dispersions of the ceramide conjugate (X) at different concentrations (0 (control), 0.5, 5 and 50 μM) were scored.

Regarding “ceramide-β-Ala-CMG(2)-biot [ceramide conjugate (X)]”, the “Incorporation into cell membranes (fluorescent labelling of the modified cells)” value was “spontaneously incorporated into cell membranes”.

Values taken from patent US20230374076A1, “THE PREPARATION OF CERAMIDE CONJUGATES AND DERIVATIVES OF SP[…]” (KODE BIOTECH LIMITED, priority 2017, published 2023).
